Biological target: CYP79F1 (Arabidopsis thaliana, UniProt Q949U1, M2A)
Conditions: E. coli C43(DE3) spheroplasts, GC-MS or TLC
Description: In a typical enzyme assay, 5 μl spheroplasts and 4 μl NADPH:cytochrome P450 reductase (equivalent to 0.04 units defined as 1 μmol cytochrome c/min) are incubated with substrate in buffer containing 30 mM KPi, pH 7.5, 3 mM NADPH, 3 mM reduced glutathione, 0.042% Tween 80, 1 mg ml^−1 L-α-dilauroylphosphatidylcholine in a total volume of 30 μl. Reaction mixtures containing spheroplasts of E. coli C43(DE3) transformed with empty vector are used as controls in all assays. 3.3 μM L-[U-^14C]phenylalanine (453 mCi/mmol; Pharmacia), 3.7 μM L-[U-^14C]tyrosine (449 mCi/mmol; Pharmacia), 0.1 mM L-[methyl-^14C]methionine (56 mCi/mmol; Pharmacia), and 24 μM L-[side chain-3-^14C]tryptophan (56.5 mCi/mmol; NEN) are tested as potential substrates. After incubation at 28° C. for 1 hour, half of the reaction mixture is analyzed by TLC on Silica Gel 60 F254 sheets (Merck) using toluene/ethyl acetate 5:1 (v/v) as eluent. Radiolabelled bands are visualized and quantified using a STORM 840 phosphoimager (Pharmacia). For GC-MS analysis, 450 μl reaction mixture containing 3.3 mM L-methionine (Sigma), 3.3 mM DL-dihomomethionine or 3.3 mM DL-trihomomethionine, respectively, are incubated for 4 hours at 25° C. and extracted with a total volume of 600 μl CHCl3. The organic phase is collected, evaporated, and the residue is dissolved in 15 μl CHCl3 and analyzed by GC-MS. […] An SGE column (BPX5, 25 m×0.25 mm, 0.25 μm film thickness) is used (heat pressure 100 kPa, splitless injection). The oven temperature program is as follows: 80° C. for 3 minutes, 80° C. to 180° C. at 5° C. min^−1, 180° C. to 300° C. at 20° C. min^−1, and 300° C. for 10 min. The ion source is run in EI mode (70 eV) at 200° C. […] DL-dihomomethionine, DL-trihomomethionine, 5-methylthiopentanaldoxime and 6-methylthiohexanaldoxime are synthesized as described (Dawson et al, J. Biol. Chem. 268: 27154-27159, 1993) and authenticated by NMR spectroscopy.

CYP79F1, sequence (Q949U1 whole entry M2A): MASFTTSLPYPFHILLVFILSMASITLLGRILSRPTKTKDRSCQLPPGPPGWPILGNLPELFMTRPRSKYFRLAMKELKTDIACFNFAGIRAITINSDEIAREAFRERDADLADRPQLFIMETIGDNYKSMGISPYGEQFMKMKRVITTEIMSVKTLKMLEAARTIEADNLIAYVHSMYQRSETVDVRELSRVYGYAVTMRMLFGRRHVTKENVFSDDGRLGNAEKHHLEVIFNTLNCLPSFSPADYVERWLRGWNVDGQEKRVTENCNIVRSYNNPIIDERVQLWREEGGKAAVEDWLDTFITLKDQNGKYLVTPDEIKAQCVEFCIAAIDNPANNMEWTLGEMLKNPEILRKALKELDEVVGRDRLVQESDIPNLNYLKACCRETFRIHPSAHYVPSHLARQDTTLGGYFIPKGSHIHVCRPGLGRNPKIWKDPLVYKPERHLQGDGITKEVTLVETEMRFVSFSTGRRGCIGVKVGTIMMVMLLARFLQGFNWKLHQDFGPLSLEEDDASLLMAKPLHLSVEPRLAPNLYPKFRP

N[C@@H](Cc1ccc(O)cc1)C(=O)O [L-tyrosine]
formation of the corresponding aldoxime by CYP79F1: did not result in the formation of detectable amounts of the corresponding aldoximes

Reference: patent publication US20030166202A1, “P450 Monooxygenases of the cyp79 family” (priority 2000, published 2003)
